US8765959B2, “Piperidine derivatives” (Boehringer Ingelheim International GmbH, priority 2011, dated 2014)

target: T1, human ACC2 (Homo sapiens, UniProt O00763); assay: ACC2 assay, spectrophotometric 384 well assay (NADH-linked, coupled lactate dehydrogenase/pyruvate kinase); format: biochemical; details: not given
T1 construct: made in house; host or cells: insect cells (baculoviral expression system)
Protocol: Spectrophotometric 384 Well Assay
Malonyl CoA formation by acetyl CoA carboxylases is stoichometrically linked to the consumption of ATP. ACC2 activity is measured in a NADH-linked kinetic method measuring ADP generated during the ACC reaction using a coupled lactate dehydrogenase/pyruvate kinase reaction.
For biological testing, a human ACC2 construct which lacks the 128 amino acids at the N-terminus for increased solubility (nt 385-6966 in Genbank entry AJ575592) is cloned. The protein is then expressed in insect cells using a baculoviral expression system. Protein purification is performed by anion exchange.
All compounds are dissolved in dimethyl sulfoxide (DMSO) to a concentration of 10 mM.
Assay reactions are then carried out in 384-well plates, with hACC2 in an appropriate dilution and at final assay concentrations (f.c.) of 100 mM Tris (pH 7.5), 10 mM trisodium citrate, 25 mM KHCO3, 10 mM MgCl2, 0.5 mg/ml BSA, 3.75 mM reduced L-glutathione, 15 U/ml lactate dehydrogenase, 0.5 mM phosphoenolpyruvate, 15 U/ml pyruvate kinase, compounds at different concentrations at final DMSO concentrations of 1%.
The enzymatic reaction is then started by addition of a mixture of NADH, acetyl Coenzyme A (both 200 μM f.c.) and ATP (500 uM f.c.). The decrease of the optical density (slope S) is then determined at 25° C. at a wavelength of 340 nm over 15 minutes in a spectrophotometric reader.
Each assay microtiter plate contains wells with vehicle instead of compound as controls for the non-inhibited enzyme (100% CTL; ‘HIGH’) and wells without acetyl-CoA as controls for non-specific NADH degradation (0% CTL; ‘LOW’).
The slope S is used for calculation of % CTL=(S(compound)−S(‘LOW’))/(S(‘HIGH’)−S(‘LOW’))*100. Compounds will give values between 100% CTL (no inhibition) and 0% CTL (complete inhibition).
For IC50 value determination, the sample slope in the presence of the test compound after subtraction of the low controls (S(compound)−S(‘LOW’)) are used.
An IC50 value is derived from the compound slopes at different dosages after subtraction of the low controls (S(compound)−S(‘LOW’)) by non-linear regression curve fitting (equation y=(A+((B−A)/(1+((C/x)^D))))).

T1 sequence (O00763 129-2458 limits assumed): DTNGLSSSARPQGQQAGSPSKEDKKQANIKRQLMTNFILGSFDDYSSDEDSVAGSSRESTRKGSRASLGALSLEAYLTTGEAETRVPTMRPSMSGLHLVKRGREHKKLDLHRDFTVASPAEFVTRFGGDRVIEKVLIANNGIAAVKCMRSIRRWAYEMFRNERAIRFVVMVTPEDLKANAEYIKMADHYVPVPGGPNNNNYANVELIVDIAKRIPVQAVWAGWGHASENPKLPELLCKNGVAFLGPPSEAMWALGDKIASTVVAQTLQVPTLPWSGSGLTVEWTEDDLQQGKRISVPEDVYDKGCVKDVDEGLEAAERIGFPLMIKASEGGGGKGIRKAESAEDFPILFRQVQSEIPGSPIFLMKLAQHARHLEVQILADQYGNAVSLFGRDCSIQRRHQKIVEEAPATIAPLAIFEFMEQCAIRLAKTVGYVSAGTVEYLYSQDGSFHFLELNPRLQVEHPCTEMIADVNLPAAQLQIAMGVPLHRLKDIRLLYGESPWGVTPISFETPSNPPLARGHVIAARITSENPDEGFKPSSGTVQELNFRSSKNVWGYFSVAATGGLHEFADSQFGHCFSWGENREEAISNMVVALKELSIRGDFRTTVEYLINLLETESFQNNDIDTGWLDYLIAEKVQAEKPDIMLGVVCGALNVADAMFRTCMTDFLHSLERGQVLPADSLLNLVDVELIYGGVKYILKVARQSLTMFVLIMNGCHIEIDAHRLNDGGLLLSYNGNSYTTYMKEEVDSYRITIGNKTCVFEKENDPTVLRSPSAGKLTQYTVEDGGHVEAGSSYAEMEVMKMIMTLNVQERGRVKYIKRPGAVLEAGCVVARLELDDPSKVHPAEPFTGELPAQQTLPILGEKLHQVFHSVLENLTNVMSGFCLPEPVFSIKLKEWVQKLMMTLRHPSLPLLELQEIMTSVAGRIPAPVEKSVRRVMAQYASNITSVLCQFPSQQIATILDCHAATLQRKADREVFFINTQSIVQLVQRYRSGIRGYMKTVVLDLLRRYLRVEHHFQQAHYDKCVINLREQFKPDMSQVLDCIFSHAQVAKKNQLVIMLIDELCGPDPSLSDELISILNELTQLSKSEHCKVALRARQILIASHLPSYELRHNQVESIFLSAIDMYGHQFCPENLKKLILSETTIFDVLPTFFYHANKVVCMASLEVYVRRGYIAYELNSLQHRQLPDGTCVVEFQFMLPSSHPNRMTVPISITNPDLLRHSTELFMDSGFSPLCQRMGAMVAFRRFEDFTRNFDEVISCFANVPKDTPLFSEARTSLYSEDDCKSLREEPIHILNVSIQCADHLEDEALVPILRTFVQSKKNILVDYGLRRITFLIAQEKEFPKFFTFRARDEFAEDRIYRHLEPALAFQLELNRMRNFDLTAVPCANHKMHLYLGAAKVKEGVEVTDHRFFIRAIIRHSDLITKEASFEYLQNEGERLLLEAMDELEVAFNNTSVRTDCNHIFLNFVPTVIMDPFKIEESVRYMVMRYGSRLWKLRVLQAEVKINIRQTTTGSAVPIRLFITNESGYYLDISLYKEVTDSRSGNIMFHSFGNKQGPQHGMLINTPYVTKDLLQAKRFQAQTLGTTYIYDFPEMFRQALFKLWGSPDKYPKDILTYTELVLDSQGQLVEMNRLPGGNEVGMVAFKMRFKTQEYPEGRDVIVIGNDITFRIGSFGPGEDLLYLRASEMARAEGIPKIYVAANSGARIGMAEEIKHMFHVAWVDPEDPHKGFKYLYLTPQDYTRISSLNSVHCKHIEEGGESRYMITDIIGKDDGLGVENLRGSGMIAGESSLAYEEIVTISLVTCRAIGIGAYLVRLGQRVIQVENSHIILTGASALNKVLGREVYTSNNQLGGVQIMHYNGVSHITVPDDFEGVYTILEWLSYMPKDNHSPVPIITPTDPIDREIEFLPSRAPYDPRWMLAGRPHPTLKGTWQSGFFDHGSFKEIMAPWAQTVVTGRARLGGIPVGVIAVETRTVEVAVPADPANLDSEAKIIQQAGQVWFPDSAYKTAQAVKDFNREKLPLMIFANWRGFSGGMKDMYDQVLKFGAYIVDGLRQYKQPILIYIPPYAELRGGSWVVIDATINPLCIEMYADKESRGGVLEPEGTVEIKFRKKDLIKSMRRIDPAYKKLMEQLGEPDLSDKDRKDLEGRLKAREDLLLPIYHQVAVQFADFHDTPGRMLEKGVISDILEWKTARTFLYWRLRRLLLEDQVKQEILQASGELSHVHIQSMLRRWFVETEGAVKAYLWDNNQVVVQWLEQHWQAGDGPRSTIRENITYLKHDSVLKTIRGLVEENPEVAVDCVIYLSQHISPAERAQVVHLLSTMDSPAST

In the case of CCOc1ccc(C2CCN(c3ccc([C@H](C)NC(=O)CF)cc3)CC2)cc1 [Example 3.8], the IC50 is reported as 440 nM.

same assay, conditions: ACC2 assay; human ACC2 construct lacking 128 N-terminal amino acids; 25° C., 340 nm, 15 minutes; read-out: IC50

In order of rising IC50:
1. CCCOc1ccc(C2CCN(c3ccc([C@H](C)NC(C)=O)cc3)CC2)c(C)c1 [Example 1.3]  50 nM
2. CCCOc1ccc(C2CCN(c3ccc([C@H](C)NC(C)=O)cc3)CC2)cc1 [Example 1.1, (S)—N-(1-{4-[4-(4-Propoxy-phenyl)-piperidin-1-yl]-phenyl}-ethyl)-acetamide]  70 nM
3. CC(=O)N[C@@H](C)c1ccc(N2CCC(c3ccc(OCC4CC4(F)F)cc3)CC2)cc1 (stereo partly shown) [Example 1.7]  90 nM
4. CCOc1ccc(C2CCN(c3ccc([C@H](C)NC(=O)C(F)(F)F)cc3)CC2)cc1 [Example 2.6]  110 nM
5. CCOc1ccc(C2CCN(c3ccc([C@H](C)NC(C)=O)cc3)CC2)cc1 [Example 1.2]  150 nM
6. CC(=O)NC(C)c1ccc(N2CCC(c3ccc(OCC4CC4)cc3F)CC2)c(F)c1 (stereo not shown) [Example 1.31]  150 nM
7. CCCOc1ccc(C2CCN(c3ccc(C(C)NC(C)=O)c(F)c3)CC2)c(C)c1 (stereo not shown) [Example 1.44]  160 nM
8. CCOc1ccc(C2CCN(c3ccc([C@H](C)NC(=O)c4sc(NC(C)=O)nc4C)cc3)CC2)cc1 [Example 3.6]  200 nM
9. CC(=O)N[C@@H](C)c1ccc(N2CCC(c3ccc(OC4CCC4)cc3)CC2)cc1 [Example 1.4]  230 nM
10. CCCOc1ccc(C2CCN(c3ccc(C(C)NC(C)=O)cc3F)CC2)cc1 (stereo not shown) [Example 1.32]  230 nM
11. C[C@H](NC(=O)N(C)C)c1ccc(N2CCC(c3ccc(OC4CCC4)cc3)CC2)cc1 [Example 1.22]  250 nM
12. CCCOc1ccc(C2CCN(c3ccc([C@H](C)NC(=O)N(C)C)cc3)CC2)cc1 [Example 1.26]  340 nM
13. CCOc1ccc(C2CCN(c3ccc(C(C)NC(C)=O)c(F)c3)CC2)cc1 (stereo not shown) [Example 1.45]  350 nM
14. CC(=O)N[C@@H](C)c1ccc(N2CCC(c3cccc(OC(C)C)c3)CC2)cc1 [Example 1.25]  370 nM
15. CC(=O)NC(C)c1ccc(N2CCC(c3ccc(OC(C)C)cc3)CC2)cc1F (stereo not shown) [Example 1.46]  370 nM
16. CCOc1ccc(C2CCN(c3ccc([C@H](C)NC(=O)C(F)F)cc3)CC2)cc1 [Example 3.2]  380 nM
17. CC(=O)NC(C)c1ccc(N2CCC(c3cccc(OC4CCC4)c3)CC2)cc1F (stereo not shown) [Example 1.47]  430 nM
18. CCOc1ccc(C2CCN(c3ccc([C@H](C)NC(C)=O)cc3)CC2)c(OC)c1 [Example 1.11]  440 nM
19. CC(=O)N[C@@H](C)c1ccc(N2CCC(c3cccc(OC4CCC4)c3)CC2)cc1 [Example 1.14]  450 nM
20. CC(=O)NC(C)c1ccc(N2CCC(c3ccc(OC(C)C)cc3)CC2)c(F)c1 (stereo not shown) [Example 1.33]  460 nM
21. CC(=O)NC(C)c1ccc(N2CCC(c3ccc(OCC4CC4)cc3F)CC2)cc1F (stereo not shown) [Example 1.48]  460 nM
22. CCOc1ccc(C2CCN(c3ccc([C@H](C)NC(=O)C4(C)CC4)cc3)CC2)cc1 [Example 2.7]  520 nM
23. C[C@H](NC(=O)N(C)C)c1ccc(N2CCC(c3ccc(OCC4CC4)cc3)CC2)cc1 [Example 1.24]  540 nM
24. CC(C)Oc1ccc(C2CCN(c3ccc([C@H](C)NC(=O)N(C)C)cc3)CC2)cc1 [Example 1.9]  610 nM
25. CCCOc1ccc(C2CCN(c3ccc([C@H](C)NC(=O)C4CC4)cc3)CC2)cc1 [Example 1.21]  640 nM
26. CCCOc1cccc(C2CCN(c3ccc([C@H](C)NC(C)=O)cc3)CC2)c1 [Example 1.20]  660 nM
27. CCOc1ccc(C2CCN(c3ccc([C@H](C)NC(=O)C4CC4)cc3)CC2)cc1 [Example 1.8]  680 nM
28. CCOc1ccc(C2CCN(c3ccc([C@H](C)NC(=O)c4cncs4)cc3)CC2)cc1 [Example 2.2]  690 nM
29. CCOc1ccc(C2CCN(c3ccc([C@H](C)NC(=O)CC)cc3)CC2)cc1 [Example 2.4]  710 nM
30. CCOc1ccc(C2CCN(c3ccc([C@H](C)NC(=O)C(C)F)cc3)CC2)cc1 (stereo partly shown) [Example 3.3]  760 nM
31. CC(C)Oc1ccc(C2CCN(c3ccc([C@H](C)NC(=O)C4CC4)cc3)CC2)cc1 [Example 1.10]  800 nM
32. CCOc1ccc(C2CCN(c3ccc([C@H](C)NC(=O)N(C)C)cc3)CC2)cc1 [Example 1.17]  820 nM
33. CCOc1cc(C2CCN(c3ccc([C@H](C)NC(C)=O)cc3)CC2)ccn1 [Example 1.19]  820 nM
34. CC(=O)N[C@@H](C)c1ccc(N2CCC(c3cccc(OCC4CC4)c3)CC2)cc1 [Example 1.5]  880 nM
35. CCOc1cccc(C2CCN(c3ccc([C@H](C)NC(C)=O)cc3)CC2)c1 [Example 1.6]  1120 nM
36. CCOc1ccc(C2CCN(c3ccc([C@H](C)NC(=O)N(C)c4cccnc4)cc3)CC2)cc1 [Example 4.2]  1160 nM
37. CCOc1ccc(C2CCN(c3ccc([C@H](C)NC(=O)CSC)cc3)CC2)cc1 [Example 2.3]  1210 nM
38. CCOc1ccc(C2CCN(c3ccc(CC(C)NC(C)=O)cc3)CC2)cc1 (stereo not shown) [Example 1.60]  1220 nM
39. C[C@H](NC(=O)C1CC1)c1ccc(N2CCC(c3ccc(OC4CCC4)cc3)CC2)cc1 [Example 1.16]  1240 nM
40. CC(=O)NC(C)c1ccc(N2CCC(c3cccc(OC(C)C)c3)CC2)cc1F (stereo not shown) [Example 1.42]  1260 nM
41. CCOc1cccc(C2CCN(c3ccc(C(C)NC(C)=O)c(F)c3)CC2)c1 (stereo not shown) [Example 1.41]  1270 nM
42. CCOc1ccc(C2CCN(c3ccc([C@H](C)NC(=O)c4csc(NC(C)=O)n4)cc3)CC2)cc1 [Example 3.7]  1480 nM
43. C[C@H](NC(=O)C1CC1)c1ccc(N2CCC(c3ccc(OCC4CC4)cc3)CC2)cc1 [Example 1.15]  1850 nM
44. CCOc1ccc(C2CCN(c3ccc([C@H](C)NC(=O)N(C)CC)cc3)CC2)cc1 [Example 4.1, (S)-3-(1-{4-[4-(4-Ethoxy-phenyl)-piperidin-1-yl]-phenyl}-ethyl)-1-ethyl-1-methyl-urea]  1980 nM
45. CCOc1ccc(C2CCN(c3ccc([C@H](C)NC(=O)OC)cc3)CC2)cc1 [Example 5.1, (S)-(1-{4-[4-(4-Ethoxy-phenyl)-piperidin-1-yl]-phenyl}-ethyl)-carbamic acid methyl ester]  2090 nM
46. COc1ccc(C2CCN(c3ccc([C@H](C)NC(C)=O)cc3)CC2)cc1 [Example 1.27]  2160 nM
47. CCOc1ccc(C2CCN(c3ccc([C@H](C)NC(=O)N4CCOCC4)cc3)CC2)cc1 [Example 4.3]  2360 nM
48. CCOc1ccc(C2CCN(c3ccc([C@H](C)NC(=O)c4coc(NC(C)=O)n4)cc3)CC2)cc1 [Example 3.1, (S)-2-Acetylamino-oxazole-4-carboxylic acid (1-{4-[4-(4-ethoxy-phenyl)-piperidin-1-yl]-phenyl}-ethyl)-amide]  2770 nM
49. CCOc1ccc(C2CCN(c3ccc([C@H](C)NC(C)=O)cc3)CC2)cn1 [Example 1.12]  3170 nM
50. CCOc1ccc(C2CCN(c3ccc([C@H](C)N(C)C(C)=O)cc3)CC2)cc1 [Example 6.1, (S)—N-(1-{4-[4-(4-Ethoxy-phenyl)-piperidin-1-yl]-phenyl}-ethyl)-N-methyl-acetamide]  3430 nM
51. CCOc1ccc(C2CCN(c3ccc([C@H](C)NC(=O)N(CC)CC)cc3)CC2)cc1 [Example 4.4]  3690 nM
52. CCOc1ccc(C2CCN(c3ccc([C@H](C)NC(=O)C4(C#N)CC4)cc3)CC2)cc1 [Example 2.1, (S)-1-Cyano-cyclopropanecarboxylic acid (1-{4-[4-(4-ethoxy-phenyl)-piperidin-1-yl]-phenyl}-ethyl)-amide]  4150 nM
53. CCCOc1ccc(C2CCN(c3ccc(C(C)NC(C)=O)cc3OC)CC2)cc1 (stereo not shown) [Example 1.52]  4230 nM
54. COc1cc(C(C)NC(C)=O)ccc1N1CCC(c2ccc(OC3CCC3)cc2)CC1 (stereo not shown) [Example 1.51]  4410 nM
55. COc1ccc(C2CCN(c3ccc(CC(C)NC(C)=O)cc3)CC2)cc1 (stereo not shown) [Example 1.61]  4470 nM
56. CCOc1ccc(C2CCN(c3ccc([C@H](C)NC(=O)c4cncc(NC(C)=O)c4)cc3)CC2)cc1 [Example 3.5]  4530 nM
57. CCOc1ccc(C2CCN(c3ccc([C@H](C)NC(=O)Cc4cc[nH]c4)cc3)CC2)cc1 [Example 3.4]  4880 nM
58. CCOc1ccc(C2CCN(c3ccc([C@H](C)NC(=O)CO)cc3)CC2)cc1 [Example 3.9]  4980 nM
59. CCOc1ccc(C2CCN(c3ccc([C@H](C)NC(=O)COC)cc3)CC2)cc1 [Example 2.5]  6910 nM
60. CCOc1ccc(C2CCN(c3ccc(CCC(C)NC(C)=O)cc3)CC2)cc1 (stereo not shown) [Example 1.70]  8470 nM
